Target: SMYD3 (Homo sapiens (Human), UniProt Q9H7B4)
Assay: SMYD3 biochemical assay (SPA, 3H-SAM methylation of MEKK2 protein substrate)
Conditions: read-out: SMYD3 Biochem IC50 (μM)*
Text: S-adenosylmethionine (SAM), S-adenosylhomocysteine (SAH), Tris, Tween20, dimethylsulfoxide (DMSO), bovine skin gelatin (BSG), and Tris(2-carboxyethyl)phosphine hydrochloride solution (TCEP) were purchased from Sigma-Aldrich at the highest level of purity possible. ^3H-SAM was purchase from American Radiolabeled Chemicals with a specific activity of 80 Ci/mmol. 384-well opaque white OptiPlates and SPA beads (Perkin Elmer, catalog # RPNQ0013) were purchased from PerkinElmer.
N-terminally GST-tagged MEKK2 (MAP3K2) protein corresponding to reference sequence AAF63496.3 was purchased from Life Technologies (catalog # PV4010). This protein was expressed in High Five insect cells and purified to >85% purity. Protein identity was confirmed by MS/MS analysis after proteolytic digestion. The protein sequence used was:
Full-length human SMYD3 isoform 1 (BAB86333) was inserted into a modified pET21b plasmid containing a His6 tag and TEV and SUMO cleavage sites.
E. coli (BL21 codonplus RIL strain, Stratagene) were transformed with plasmid pEPZ553 by mixing competent cells and plasmid DNA and incubating on ice for 30 minutes followed by heat shock at 42° C. for 1 minute and cooling on ice for 2 minutes. Transformed cells were grown and selected on LB agar with 100 μg/mL ampicillin and 17 μg/mL chloramphenicol at 37° C. overnight. A single clone was used to inoculate 200 mL of LB medium with 100 μg/mL ampicillin and 17 μg/mL chloramphenicol and incubated at 37° C. on an orbital shaker at 180 rpm. Once in log growth, the culture was diluted 1:100 into 2 L of LB medium and grown until OD600 was about 0.3 after which the culture was incubated at 15° C. and 160 rpm. Once OD600 reached about 0.4, IPTG was added to a final concentration of 0.1 mM and the cells were grown overnight at 15° C. and 160 rpm. Cells were harvested by centrifugation at 8000 rpm, for 4 minutes at 4° C. and stored at −80° C. for purification.
The column was washed with Buffer B (Buffer A plus 20 mM imidazole) and His-tagged SMYD3 was eluted with Buffer C (Buffer A plus 300 mM imidazole). The His tag, TEV and SUMO cleavage sites were removed generating native SMYD3 by addition of ULP1 protein at a ratio of 1:200 (ULP1:SMYD3). Imidazole was removed by dialysis overnight in Buffer A. The dialyzed solution was applied to a second Nickel column and the native SMYD3 protein was collected from the column flow-through. The flow-through was dialyzed in Buffer D (25 mM Tris, 5% glycerol, 5 mM β-mercaptoethanol, 50 mM NaCl, pH7.8) and ULP1 was removed using a Q sepharose fast flow column.
General Procedure for SMYD3 Enzyme Assays on MEKK2 Protein Substrate
The assays were all performed in a buffer consisting of 25 mM Tris-Cl pH 8.0, 1 mM TCEP, 0.005% BSG, and 0.005% Tween 20, prepared on the day of use. […] DMSO (1 ul) was added to Columns 11, 12, 23, 24, rows A-H for the maximum signal control and 1 ul of SAH, a known product and inhibitor of SMYD3, was added to columns 11, 12, 23, 24, rows I-P for the minimum signal control. A cocktail (40 ul) containing the SMYD3 enzyme was added by Multidrop Combi (Thermo-Fisher). The compounds were allowed to incubate with SMYD3 for 30 min at room temperature, then a cocktail (10 ul) containing SAM and MEKK2 was added to initiate the reaction (final volume=51 ul). […] The assays were stopped by the addition of non-radiolabeled SAM (10 ul) to a final concentration of 100 uM, which dilutes the ^3H-SAM to a level where its incorporation into MEKK2 is no longer detectable. Radiolabeled MEKK2 was detected using a scintillation proximity assay (SPA). 10 uL of a 10 mg/mL solution of SPA beads in 0.5 M citric acid was added and the plates centrifuged at 600 rpm for 1 min to precipitate the radiolabeled MEKK2 onto the SPA beads. The plates were then read in a PerkinElmer TopCount plate reader to measure the quantity of ^3H-labeled MEKK2 as disintegrations per minute (dpm) or alternatively, referred to as counts per minute (cpm).

IC50	Compound
12.4 µM	C[C@H]1CC(NC(=O)c2cc(C3CC3)on2)CCN1C(=O)CCN1CCCC1 (stereo partly drawn) [compound 69, 5-cyclopropyl-N-((2S)-2-methyl-1-(3-(pyrrolidin-1-yl)propanoyl)piperidin-4-yl)isoxazole-3-carboxamide]
7.73 µM	C[C@@H]1CC(NC(=O)c2cc(C3CC3)on2)CCN1C(=O)CCN1CCCC1 (stereo partly drawn) [compound 70, 5-cyclopropyl-N-((2R)-2-methyl-1-(3-(pyrrolidin-1-yl)propanoyl)piperidin-4-yl)isoxazole-3-carboxamide]
2.54 µM	C[C@H]1CC(NC(=O)c2cc(C3CC3)on2)CCN1C(=O)[C@H]1C[C@@H](N)C1 (stereo partly drawn) [compound 71, N-((2S)-1-((1s,3R)-3-aminocyclobutane-1-carbonyl)-2-methylpiperidin-4-yl)-5-cyclopropylisoxazole-3-carboxamide]
2.72 µM	C[C@H]1CC(NC(=O)c2cc(C3CC3)on2)CCN1C(=O)[C@H]1C[C@H](N)C1 (stereo partly drawn) [compound 72, N-((2S)-1-((1r,3S)-3-aminocyclobutane-1-carbonyl)-2-methylpiperidin-4-yl)-5-cyclopropylisoxazole-3-carboxamide]
22.1 µM	C[C@@H]1CC(NC(=O)c2cc(C3CC3)on2)CCN1C(=O)CN (stereo partly drawn) [compound 81, 5-cyclopropyl-N-((2R)-1-glycyl-2-methylpiperidin-4-yl)isoxazole-3-carboxamide]
10.5 µM	C[C@H]1C[C@@H](NC(=O)c2cc(C3CC3)on2)CCN1C(=O)CCN [compound 82, N-((2S,4S)-1-(3-aminopropanoyl)-2-methylpiperidin-4-yl)-5-cyclopropylisoxazole-3-carboxamide]
6.6 µM	C[C@H]1C[C@H](NC(=O)c2cc(C3CC3)on2)CCN1C(=O)CCN [compound 83, N-((2S,4R)-1-(3-aminopropanoyl)-2-methylpiperidin-4-yl)-5-cyclopropylisoxazole-3-carboxamide]
6.14 µM	C[C@@H]1CC(NC(=O)c2cc(C3CC3)on2)CCN1C(=O)CCN (stereo partly drawn) [compound 84, N-((2R)-1-(3-aminopropanoyl)-2-methylpiperidin-4-yl)-5-cyclopropylisoxazole-3-carboxamide]
2.37 µM	C[C@H]1CC(NC(=O)c2cc(C3CC3)on2)CCN1C(=O)[C@@H]1CC[C@@H](N)C1 (stereo partly drawn) [compound 85, N-((2S)-1-((1R,3R)-3-aminocyclopentane-1-carbonyl)-2-methylpiperidin-4-yl)-5-cyclopropylisoxazole-3-carboxamide]
2.56 µM	C[C@H]1CC(NC(=O)c2cc(C3CC3)on2)CCN1C(=O)[C@@H]1CC[C@H](N)C1 (stereo partly drawn) [compound 86, N-((2S)-1-((1R,3S)-3-aminocyclopentane-1-carbonyl)-2-methylpiperidin-4-yl)-5-cyclopropylisoxazole-3-carboxamide]
3.25 µM	C[C@@H]1CC(NC(=O)c2cc(C3CC3)on2)CCN1C(=O)[C@H]1C[C@@H](N)C1 (stereo partly drawn) [compound 87, N-((2R)-1-((1s,3S)-3-aminocyclobutane-1-carbonyl)-2-methylpiperidin-4-yl)-5-cyclopropylisoxazole-3-carboxamide]
5.33 µM	CN[C@H]1CC[C@H](C(=O)N2CCC(NC(=O)c3cc(C4CC4)on3)C[C@@H]2C)CC1 (stereo partly drawn) [compound 90, 5-cyclopropyl-N-((2S)-2-methyl-1-((1r,4S)-4-(methylamino)cyclohexane-1-carbonyl)piperidin-4-yl)isoxazole-3-carboxamide]
0.778 µM	C[C@@H]1CC(NC(=O)c2cc(C3CC3)on2)CCN1C(=O)CN1CCNCC1 (stereo partly drawn) [compound 92, 5-cyclopropyl-N-((2R)-2-methyl-1-(2-(piperazin-1-yl)acetyl)piperidin-4-yl)isoxazole-3-carboxamide]
2.38 µM	CC[C@H]1CC(NC(=O)c2cc(C3CC3)on2)CCN1C(=O)[C@H]1CC[C@H](N)CC1 (stereo partly drawn) [compound 94, N-((2S)-1-((1r,4S)-4-aminocyclohexane-1-carbonyl)-2-ethylpiperidin-4-yl)-5-cyclopropylisoxazole-3-carboxamide]
0.532 µM	C[C@@H]1CC(NC(=O)c2cc(C3CC3)on2)CCN1C(=O)[C@@H]1CC[C@@H](N)C1 (stereo partly drawn) [compound 95, N-((2R)-1-((1R,3R)-3-aminocyclopentane-1-carbonyl)-2-methylpiperidin-4-yl)-5-cyclopropylisoxazole-3-carboxamide]

Second part, the molecule before the results:

Compound	IC50
NC[C@H](Cc1ccc(O)c(Cl)c1)C(=O)N1CCC(NC(=O)c2cc(C3CC3)on2)CC1 [compound 64, (S)-N-(1-(3-amino-2-(3-chloro-4-hydroxybenzyl)propanoyl)piperidin-4-yl)-5-cyclopropylisoxazole-3-carboxamide]	7.16 µM
C[C@H]1CN(C(=O)[C@@H](N)Cc2ccc(O)cc2)CCC1NC(=O)c1cc(C2CC2)on1 (stereo partly drawn) [compound 67, N-((3S)-1-(L-tyrosyl)-3-methylpiperidin-4-yl)-5-cyclopropylisoxazole-3-carboxamide]	2.32 µM
C[C@@H]1CN(C(=O)[C@@H](N)Cc2ccc(O)cc2)CCC1NC(=O)c1cc(C2CC2)on1 (stereo partly drawn) [compound 68, N-((3R)-1-(L-tyrosyl)-3-methylpiperidin-4-yl)-5-cyclopropylisoxazole-3-carboxamide]	1.69 µM
N[C@H]1CC[C@H](C(=O)N2C3CCCC2CC(NC(=O)c2cc(C4CC4)on2)C3)CC1 (some centres unmarked) [compound 73, N-(9-((1r,4r)-4-aminocyclohexane-1-carbonyl)-9-azabicyclo[3.3.1]nonan-3-yl)-5-cyclopropylisoxazole-3-carboxamide]	5.35 µM
CCS(=O)(=O)N1CCC(NC(=O)c2cc(C3CC3)on2)C[C@H]1C (stereo partly drawn) [compound 75, 5-cyclopropyl-N-((2R)-1-(ethylsulfonyl)-2-methylpiperidin-4-yl)isoxazole-3-carboxamide]	7.31 µM
CC[C@H]1CN(C(=O)CC2CCNCC2)CC[C@@H]1NC(=O)c1cc(C2CC2)on1 [compound 76, 5-cyclopropyl-N-((3S,4S)-3-ethyl-1-(2-(piperidin-4-yl)acetyl)piperidin-4-yl)isoxazole-3-carboxamide]	0.541 µM
N[C@H](Cc1ccc(O)cc1)CN1CCC(NC(=O)c2cc(C3CC3)on2)CC1 [compound 79, (R)-N-(1-(2-amino-3-(4-hydroxyphenyl)propyl)piperidin-4-yl)-5-cyclopropylisoxazole-3-carboxamide]	20.4 µM
CC1CN(C(=O)CCN)CCC1NC(=O)c1cc(C2CC2)on1 (centres unmarked) [compound 80, N-(1-(3-aminopropanoyl)-3-methylpiperidin-4-yl)-5-cyclopropylisoxazole-3-carboxamide]	6.81 µM
NC1CCC(C(=O)N2CCC(NC(=O)c3cc(C4CC4)on3)CC2c2ccccc2)CC1 (centres unmarked) [compound 89, N-(1-((1r,4r)-4-aminocyclohexane-1-carbonyl)-2-phenylpiperidin-4-yl)-5-cyclopropylisoxazole-3-carboxamide]	3.39 µM
C[C@H]1CC(NC(=O)c2cc(C3CC3)on2)CCN1C(=O)CN1CCNCC1 (stereo partly drawn) [compound 91, 5-cyclopropyl-N-((2S)-2-methyl-1-(2-(piperazin-1-yl)acetyl)piperidin-4-yl)isoxazole-3-carboxamide]	3.91 µM
CC[C@H]1CN(C(=O)C2CCC(N)CC2)CC[C@@H]1NC(=O)c1cc(C2CC2)on1 (stereo partly drawn) [compound 93, N-((3S,4S)-1-(4-aminocyclohexane-1-carbonyl)-3-ethylpiperidin-4-yl)-5-cyclopropylisoxazole-3-carboxamide]	1.61 µM

— patent US10577363B2, “Substituted piperidine compounds” (EPIZYME, INC., priority 2014, dated 2020)
